According to patent US11028212B2, “Chloroprene graft copolymer latex, method for producing same, bonding agent and adhesive” (SHOWA DENKO K.K., priority 2016, dated 2021):

Type: physicochemical
Conditions: polymerization initiator
Source text: The octanol/water partition coefficient is also expressed as LogPow and is an index representing hydrophobicity (solubility in lipid) of a chemical substance. The measurement method of the octanol/water partition coefficient is basically in accordance with OECD Test Guideline (“C (81) 30 appendix 1” determined by OECD Board of Directors) 107 or Japanese Industrial Standards Z7260-107 (2000), “Determination of partition coefficient (1-octanol/water)-Shake flask method”.

## CC(C)(C)OO [t-butyl hydroperoxide]
  octanol/water partition coefficient: −1.3
